# PubChem BioAssay (NCI)
#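 The compound was tested at five concentrations on cells cultured in 96-well plates, with a 48-hour exposure period. Abbreviation: GI50, concentration required for 50% inhibition of growth. TGI denotes the concentration required for complete inhibition of growth.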
# Experiments:
# Assay in all cases: inhibition of tumour cell growth, NCI panel, 48 h
# NCI/ADR-RES ovarian = tested on: NCI/ADR-RES ovarian
# HS 578T breast = tested on: HS 578T breast
# A549 NSCLC = tested on: A549 NSCLC
# MALME-3M melanoma = tested on: MALME-3M melanoma
# MDA-MB-231 breast = tested on: MDA-MB-231 breast
# NCI-H522 lung = tested on: NCI-H522 lung
# A498 renal = tested on: A498 renal
# SR leukemia = tested on: SR leukemia
# EKVX NSCLC = tested on: EKVX NSCLC
# BT-549 breast = tested on: BT-549 breast
# SK-MEL-28 melanoma = tested on: SK-MEL-28 melanoma
# COLO 205 colon = tested on: COLO 205 colon
# K-562 leukemia = tested on: K-562 leukemia
# UO-31 renal = tested on: UO-31 renal
# KM12 colon = tested on: KM12 colon
# OVCAR-3 ovarian = tested on: OVCAR-3 ovarian
# OVCAR-8 ovarian = tested on: OVCAR-8 ovarian
# CCRF-CEM leukemia = tested on: CCRF-CEM leukemia
# 786-0 renal = tested on: 786-0 renal
# OVCAR-4 ovarian = tested on: OVCAR-4 ovarian
# UACC-62 melanoma = tested on: UACC-62 melanoma
# TK-10 renal = tested on: TK-10 renal
# MDA-MB-468 breast = tested on: MDA-MB-468 breast
# HCT-116 colon = tested on: HCT-116 colon
# SW-620 colon = tested on: SW-620 colon
# SN12C renal = tested on: SN12C renal
# RPMI-8226 leukemia = tested on: RPMI-8226 leukemia
# UACC-257 melanoma = tested on: UACC-257 melanoma
# SNB-75 CNS = tested on: SNB-75 CNS
# ACHN renal = tested on: ACHN renal
# U251 CNS = tested on: U251 CNS
# OVCAR-5 ovarian = tested on: OVCAR-5 ovarian
# HOP-62 NSCLC = tested on: HOP-62 NSCLC
# MCF7 breast = tested on: MCF7 breast
# SNB-19 CNS = tested on: SNB-19 CNS
# SK-OV-3 ovarian = tested on: SK-OV-3 ovarian
# MDA-MB-435 = tested on: MDA-MB-435
# SK-MEL-5 melanoma = tested on: SK-MEL-5 melanoma
# NCI-H226 lung = tested on: NCI-H226 lung
# HOP-92 NSCLC = tested on: HOP-92 NSCLC
# MOLT-4 leukemia = tested on: MOLT-4 leukemia
# NCI-H23 lung = tested on: NCI-H23 lung
# HCC-2998 colon = tested on: HCC-2998 colon
# DU-145 prostate = tested on: DU-145 prostate
# HCT-15 colon = tested on: HCT-15 colon
# M14 melanoma = tested on: M14 melanoma
# HT29 colon = tested on: HT29 colon
# SF-295 CNS = tested on: SF-295 CNS
# SF-539 CNS = tested on: SF-539 CNS
# NCI-H460 lung = tested on: NCI-H460 lung
# SF-268 CNS = tested on: SF-268 CNS
# LOX IMVI melanoma = tested on: LOX IMVI melanoma
# SK-MEL-2 melanoma = tested on: SK-MEL-2 melanoma
# IGROV1 ovarian = tested on: IGROV1 ovarian
# CAKI-1 renal = tested on: CAKI-1 renal
# HL-60(TB) leukemia = tested on: HL-60(TB) leukemia
# RXF 393 renal = tested on: RXF 393 renal
# PC-3 prostate = tested on: PC-3 prostate
compound,measurement,setting,value
Cn1cc(-c2nc(N)nnc2-c2c[nH]c3ccc(F)cc23)c2cc(Br)cnc21,GI50,NCI/ADR-RES ovarian,155 nM
same,TGI,NCI/ADR-RES ovarian,1170 nM
same,GI50,HS 578T breast,49.6 nM
same,TGI,HS 578T breast,25.8 µM
same,GI50,A549 NSCLC,172 nM
same,TGI,A549 NSCLC,> 48.4 µM
same,GI50,MALME-3M melanoma,52.5 nM
same,TGI,MALME-3M melanoma,18.8 µM
same,GI50,MDA-MB-231 breast,121 nM
same,TGI,MDA-MB-231 breast,8.26 µM
same,GI50,NCI-H522 lung,19.3 nM
same,TGI,NCI-H522 lung,231 nM
same,GI50,A498 renal,13.6 µM
same,TGI,A498 renal,27.1 µM
same,GI50,SR leukemia,38.8 nM
same,TGI,SR leukemia,> 54.9 µM
same,GI50,EKVX NSCLC,279 nM
same,TGI,EKVX NSCLC,17.7 µM
same,GI50,BT-549 breast,91.8 nM
same,TGI,BT-549 breast,10.1 µM
same,GI50,SK-MEL-28 melanoma,161 nM
same,TGI,SK-MEL-28 melanoma,19.5 µM
same,GI50,COLO 205 colon,73.7 nM
same,TGI,COLO 205 colon,886 nM
same,GI50,K-562 leukemia,39.4 nM
same,TGI,K-562 leukemia,> 100 µM
same,GI50,UO-31 renal,276 nM
same,TGI,UO-31 renal,13.2 µM
same,GI50,KM12 colon,50.8 nM
same,TGI,KM12 colon,13.4 µM
same,GI50,OVCAR-3 ovarian,53 nM
same,TGI,OVCAR-3 ovarian,15.7 µM
same,GI50,OVCAR-8 ovarian,192 nM
same,TGI,OVCAR-8 ovarian,12.4 µM
same,GI50,CCRF-CEM leukemia,109 nM
same,TGI,CCRF-CEM leukemia,> 67.1 µM
same,GI50,786-0 renal,145 nM
same,TGI,786-0 renal,18 µM
same,GI50,OVCAR-4 ovarian,3.56 µM
same,TGI,OVCAR-4 ovarian,33 µM
same,GI50,UACC-62 melanoma,32.3 nM
same,TGI,UACC-62 melanoma,12.8 µM
same,GI50,TK-10 renal,10.6 µM
same,TGI,TK-10 renal,25.8 µM
same,GI50,MDA-MB-468 breast,27.2 nM
same,TGI,MDA-MB-468 breast,124 nM
same,GI50,HCT-116 colon,52.1 nM
same,TGI,HCT-116 colon,13.1 µM
same,GI50,SW-620 colon,48.7 nM
same,TGI,SW-620 colon,15.2 µM
same,GI50,SN12C renal,204 nM
same,TGI,SN12C renal,13.8 µM
same,GI50,RPMI-8226 leukemia,403 nM
same,TGI,RPMI-8226 leukemia,> 100 µM
same,GI50,UACC-257 melanoma,11.8 µM
same,TGI,UACC-257 melanoma,25.1 µM
same,GI50,SNB-75 CNS,47.4 nM
same,TGI,SNB-75 CNS,14.1 µM
same,GI50,ACHN renal,91.1 nM
same,TGI,ACHN renal,15.4 µM
same,GI50,U251 CNS,57.4 nM
same,TGI,U251 CNS,13 µM
same,GI50,OVCAR-5 ovarian,217 nM
same,TGI,OVCAR-5 ovarian,14.6 µM
same,GI50,HOP-62 NSCLC,85.8 nM
same,TGI,HOP-62 NSCLC,19.2 µM
same,GI50,MCF7 breast,35.8 nM
same,TGI,MCF7 breast,12.3 µM
same,GI50,SNB-19 CNS,139 nM
same,TGI,SNB-19 CNS,12.7 µM
same,GI50,SK-OV-3 ovarian,126 nM
same,TGI,SK-OV-3 ovarian,19.6 µM
same,GI50,MDA-MB-435,26.2 nM
same,TGI,MDA-MB-435,78.2 nM
same,GI50,SK-MEL-5 melanoma,40.2 nM
same,TGI,SK-MEL-5 melanoma,1690 nM
same,GI50,NCI-H226 lung,109 nM
same,TGI,NCI-H226 lung,12.7 µM
same,GI50,HOP-92 NSCLC,5.93 µM
same,TGI,HOP-92 NSCLC,30.7 µM
same,GI50,MOLT-4 leukemia,161 nM
same,TGI,MOLT-4 leukemia,14.8 µM
same,GI50,NCI-H23 lung,198 nM
same,TGI,NCI-H23 lung,11.2 µM
same,GI50,HCC-2998 colon,156 nM
same,TGI,HCC-2998 colon,5.77 µM
same,GI50,DU-145 prostate,144 nM
same,TGI,DU-145 prostate,14.1 µM
same,GI50,HCT-15 colon,52.3 nM
same,TGI,HCT-15 colon,11.6 µM
same,GI50,M14 melanoma,87 nM
same,TGI,M14 melanoma,16.2 µM
same,GI50,HT29 colon,50.6 nM
same,TGI,HT29 colon,615 nM
same,GI50,SF-295 CNS,48.8 nM
same,TGI,SF-295 CNS,12.3 µM
same,GI50,SF-539 CNS,46.2 nM
same,TGI,SF-539 CNS,405 nM
same,GI50,NCI-H460 lung,45.8 nM
same,TGI,NCI-H460 lung,3.77 µM
same,GI50,SF-268 CNS,1460 nM
same,TGI,SF-268 CNS,18.9 µM
same,GI50,LOX IMVI melanoma,63.5 nM
same,TGI,LOX IMVI melanoma,14.9 µM
same,GI50,SK-MEL-2 melanoma,87.2 nM
same,TGI,SK-MEL-2 melanoma,13.6 µM
same,GI50,IGROV1 ovarian,72.7 nM
same,TGI,IGROV1 ovarian,14.3 µM
same,GI50,CAKI-1 renal,76.4 nM
same,TGI,CAKI-1 renal,17 µM
same,GI50,HL-60(TB) leukemia,39 nM
same,TGI,HL-60(TB) leukemia,290 nM
same,GI50,RXF 393 renal,47.1 nM
same,TGI,RXF 393 renal,236 nM
same,GI50,PC-3 prostate,94.9 nM
same,TGI,PC-3 prostate,48.9 µM
